Measured values as given in ChEMBL document CHEMBL1641458, “A journey from benzanilides to dithiobenzanilides: Synthesis of selective spasmolytic compounds” (Bioorg Med Chem, 2011).

Assays:
[1] = Antispasmodic activity in guinea pig arteria pulmonalis ring assessed as inhibition of 60 mM KCl-induced contraction after 45 mins; type: functional, Cavia porcellus
Aorta = experiment: tissue or blood; type: functional, tissue-based; conditions: Cavia porcellus, 0.75 h
Ileum = experiment: tissue or blood; type: functional, tissue-based; conditions: Cavia porcellus, 0.75 h

- IC50 [1]: > 100 µM
- IC50 (Aorta): > 100 µM
- IC50 (Ileum): > 100 µM
SMILES: COc1cc(C(=S)Nc2cccc(NC(=S)c3cc(OC)c(OC)c(OC)c3)c2)cc(OC)c1OC
